{
  "source": "patent US20250049953A1",
  "about": "“TREATMENT AND METHOD FOR INHIBITING LATE NA CURRENT” (THE TRUSTEES OF COLUMBIA UNIVERSITY IN THE CITY OF NEW YORK, priority 2022, published 2025)",
  "molecules": {"B1": {"name": "FHF1A amino terminus: entire FHF1A amino terminus expressed as a peptide (peptide)", "peptide": "MAAAIASSLIRQKRQARESNSDRVSASKRRSSPSKDGRSLCERHVLGVFSKVRFCSGRKRPVRRRP", "modifications": "left off: large carriers", "notes": "entire FHF1A amino terminus expressed as a peptide"}},
  "key": {"NaV1.5 IQ/AA mutant": {"target": "T1, NaV1.5 IQ/AA mutant (Homo sapiens, UniProt Q14524, I1908A/Q1909A)", "T1 construct": "expressed in transfected cells; host or cells: HEK293 (ATCC CRL1573)", "test": "Multichannel recordings of late Na current, NaV1.5 IQ/AA mutant in HEK293 cells", "type": "cell-based", "conditions": "for change in INa,L: co-expression with NaV1.5 IQ/AA in HEK293 cells", "excerpt": "The human NaV1.5 channel corresponds to clone M77235.1 (GenBank) and is subcloned into pGW 1 vector with HindIII and SaII. To facilitate construction of channelopathic mutations in the channel carboxy-terminus, we introduced silent mutations into NaV1.5 to introduce an NruI cutting site near the channel carboxy-terminus (5329-gtggccacg-5337 into 5329-gtCgcGacg-5337). Subsequently, we used overlap-extension PCR and ligated the PCR product into NaV1.5/pGW1 using NruI and XbaI restriction sites (mutations: E1784K, S1904L, IQ/AA, and Q1909R). For generating the ΔKPQ and IFM/IQM mutations, we used overlap-extension PCR and ligated in NaV1.5/pGW1 following restriction digest using KpnI and XbaI site. For generation of NaV1.5 truncations, we PCR amplified relevant segments using a forward primer upstream of the KpnI site and a reverse primer that truncated at the appropriate location (Δ1810 and Δ1885) and included an XbaI site and ligated into NaV1.5/pW1 vector. For LILA/WICW mutations, we used overlap extension and used restriction site AgeI and NheI for subsequent ligation. All segments subjected to PCR amplification were verified by sequencing. For generating human FHF2 splice-variants, we synthesized gene fragments and ligated into pcDNA3 using BamHI/EcoRI restriction sites. Human FHF1A and FHF1B were subcloned into ECFP-N3 vector, FHF2 splice variants and FHF3 were subcloned into pcDNA3. Truncations of the FHF1A amino-terminus (NT) were generated as fusion proteins with Venus fluorescent protein in the carboxy-terminus by encoding the relevant segments as noted in FIG. 12A in the forward PCR primer and the fluorophore as the template. Following PCR amplification, each fragment was ligated into pcDNA3 following restriction digest using NheI and XhoI enzymes. Plasmid encoding PKA catalytic subunit was constructed from pDONR222-PRKACA as described previously.\nHEK293 cells (ATCC CRL1573) were cultured on glass coverslips in 60-mm dishes and transfected using the Ca^2+-phosphate method as previously described. For electrophysiology experiments, we co-transfected 4-8 μg of cDNA encoding the desired channel variant with 4 μg of YFP, and 1 μg of simian virus 40 T-antigen. For experiments evaluating effect of FHF, we transfected the relevant FHF variant at 1:1 ratio as the α-subunit. For experiments considering competition between FHF1/2 isoforms, we co-transfected FHF1B and FHF2S variants at specified ratios (ranging from 1:1 to 1:10). The culture media was replaced following 4 h of transfection. Electrophysiology recordings were then performed at room temperature 1-2 days following transfection.\nMultichannel records were obtained in the on-cell configuration with either HEK293 cells or in aMVM as in our previous study. The pipette contained (in mM): 140 NaCl; 10 HEPES; 0.5 CaCl2; at 300 mOsm, adjusted with tetraethylammonium methanesulfonate; and pH 7.4 adjusted with tetraethylammonium hydroxide. To zero membrane potential, the bath contained (in mM): 132 K^+-glutamate; 5 KCl; 5 NaCl; 3 MgCl; 2 EGTA; 10 glucose; 20HEPES; at 300 mOsm adjusted with glucose; and pH 7.4 adjusted with NaOH. Data were acquired at room temperature using the integrating mode of an Axopatch 200A amplifier (Axon Instruments, Molecular Devices). Patch pipettes (3-10 MΩ) were pulled from ultra-thick-walled borosilicate glass (BF200-116-10; Sutter Instruments) using horizontal puller (P-97, Sutter Instruments), fire polished with a microforge (Narishige), and coated with Sylgard™ brand silicone elastomer (Dow Corning). Elementary currents were low-pass filtered at 2 kHz with a four-pole Bessel filter and digitized at 200 kHz with an ITC-18 unit (Instrutech), controlled by custom MATLAB software (Mathworks). For each pulse, we obtained P/8 leak pulses. Leak subtraction was performed using an automated algorithm which fit the kinetics of the leak current or the capacitive transient with convex optimization with L1 regularization. […]"}, "[1]": {"tested_on": "ischemia induced arrhythmias", "conditions": "rats; cited from earlier work"}, "late Na current": {"tested_on": "late Na current", "conditions": "cited from earlier work"}, "[2]": {"tested_on": "aMVM from non-transgenic mice", "test": "Multichannel recordings of INa,L in cultured aMVM from non-transgenic mice", "type": "cell-based, mouse", "conditions": "5 μM Forskolin following shRNA-mediated silencing of FHF2", "excerpt": "As such, we sought to determine whether “protective” FHF variants may inhibit phosphorylation-dependent INa,L. To maximally upregulate INa,L, we co-expressed wild-type NaV1.5 with either (1) the catalytic Cα subunit of protein kinase A (PKA) or (2) a constitutively-active Ca^2+/CaM dependent kinase II (CaMKIIT286D) mutant in HEK293 cells. This maneuver likely triggers runaway phosphorylation of NaV1.5 and thereby furnishes a baseline to discern any potential FHF-dependent change. As expected, we observed an ˜5 fold increase in INa,L in the presence of the PKA Cα subunit (FIGS. 3D and 3E), and a 3-fold increase with CaMKIIT286D (FIGS. 3E and 11B). […] Encouraged by these findings, we dissected the functional role of this modulation in native cardiomyocytes (FIGS. 3F and 3G).\nMultichannel records were obtained in the on-cell configuration with either HEK293 cells or in aMVM as in our previous study. The pipette contained (in mM): 140 NaCl; 10 HEPES; 0.5 CaCl2; at 300 mOsm, adjusted with tetraethylammonium methanesulfonate; and pH 7.4 adjusted with tetraethylammonium hydroxide. […]\nMice ventricular myocytes were isolated by enzymatic digestion using a Langendorff perfusion apparatus as previously described. […] The efficacy of viral transduction was assessed 24-48 hours post infection."}, "neuronal Na channels": {"tested_on": "neuronal Na channels", "conditions": "cited from earlier work"}, "[3]": {"conditions": "in vivo; cited from earlier work"}, "[4]": {"conditions": "acute animal toxicity tests; cited from earlier work"}, "[5]": {"target": "T2, NaV1.5 S1904L mutant channel (Homo sapiens, UniProt Q14524, S1904L)", "T2 construct": "expressed in transfected cells; host or cells: HEK293 (ATCC CRL1573)", "test": "Multichannel recordings of late Na current, NaV1.5 S1904L", "type": "cell-based", "method": "HEK293 cells (ATCC CRL1573) were cultured on glass coverslips in 60-mm dishes and transfected using the Ca^2+-phosphate method as previously described. For electrophysiology experiments, we co-transfected 4-8 μg of cDNA encoding the desired channel variant with 4 μg of YFP, and 1 μg of simian virus 40 T-antigen. […] The culture media was replaced following 4 h of transfection. Electrophysiology recordings were then performed at room temperature 1-2 days following transfection."}, "[6]": {"tested_on": "Ca^2+ channels and K^+ channels", "conditions": "cited from earlier work"}, "[7]": {"target": "NaV1.5 LILA/WICW mutant (human) (UniProt Q14524)", "test": "cell-based or functional assay"}, "[8]": {"target": "NaV1.5 IFM/IQM mutant (human) (UniProt Q14524)", "test": "cell-based or functional assay"}, "[9]": {"target": "NaV1.5 IQ/AA mutant (human) (UniProt Q14524)", "test": "cell-based or functional assay"}, "[10]": {"conditions": "incubation with 10 μM ranolazine"}},
  "note": "No end group written: not given here.",
  "data": [
    {"molecule": "1-18: FHF1A amino-terminal truncation peptide, residues 1-18, Venus fusion (MAAAIASSLIRQKRQARE; also: Venus fusion, end not given here; UniProt P61328 1-18, looked up, fragment)", "values": [
      {"measurement": "change in INa,L", "setting": "NaV1.5 IQ/AA mutant", "value": "increase late channel openings"}
    ]},
    {"molecule": "9-32: FHF1A amino-terminal truncation peptide, residues 9-32, Venus fusion (LIRQKRQARESNSDRVSASKRRSS; also: Venus fusion, end not given here; UniProt P61328 9-32, looked up, fragment)", "values": [
      {"measurement": "change in INa,L", "setting": "NaV1.5 IQ/AA mutant", "value": "increase late channel openings"}
    ]},
    {"molecule": "12-17: FHF1A amino-terminal truncation peptide, residues 12-17, Venus fusion (QKRQAR; also: Venus fusion, end not given here; UniProt P61328 12-17, looked up, fragment)", "values": [
      {"measurement": "change in INa,L", "setting": "NaV1.5 IQ/AA mutant", "value": "increase late channel openings"}
    ]},
    {"molecule": "18-39: FHF1A amino-terminal truncation peptide, residues 18-39, Venus fusion (ESNSDRVSASKRRSSPSKDGRS; also: Venus fusion, end not given here; UniProt P61328 18-39, looked up, fragment)", "values": [
      {"measurement": "change in INa,L", "setting": "NaV1.5 IQ/AA mutant", "value": "increase late channel openings"}
    ]},
    {"molecule": "COc1ccccc1SC[C@@H](C)CN[C@@H]1COc2ccccc2SC1", "note": "[F15845]", "values": [
      {"measurement": "effect on ischemia induced arrhythmias", "setting": "[1]", "value": "prevented ischemia induced arrhythmias"},
      {"measurement": "potency/efficacy for blocking late Na current", "setting": "late Na current", "value": "very high efficacy"}
    ]},
    {"molecule": "C=C[C@@]1(C)CC(=O)[C@]2(O)[C@@]3(C)[C@@H](O)CCC(C)(C)[C@@H]3[C@H](O)[C@H](OC(C)=O)[C@@]2(C)O1", "note": "[Forskolin]", "values": [
      {"measurement": "increase in INa,L", "setting": "[2]", "value": 20, "unit": "fold"}
    ]},
    {"molecule": "FC(F)(F)Oc1ccc(-c2ccc3nnc(C(F)(F)F)n3c2)cc1", "note": "[GS-458967]", "values": [
      {"measurement": "block of neuronal Na channels", "setting": "neuronal Na channels", "value": "use-dependent block"},
      {"measurement": "brain penetration", "setting": "[3]", "value": "high brain penetration"},
      {"measurement": "potency/efficacy for blocking late Na current", "setting": "late Na current", "value": "high efficacy"}
    ]},
    {"molecule": "Cc1noc(Cn2nc3ccc(-c4ccc(OC(F)(F)F)cc4)cn3c2=O)n1", "note": "[GS-462808]", "values": [
      {"measurement": "liver findings", "setting": "[4]", "value": "caused liver lesions"}
    ]},
    {"molecule": "COc1ccccc1OCC(O)CN1CCN(CC(=O)Nc2c(C)cccc2C)CC1", "note": "(stereo not drawn) [ranolazine]", "values": [
      {"measurement": "reduction in INa,L", "setting": "[5]; [10]", "value": 3, "unit": "fold"},
      {"measurement": "inhibition of INa,L", "setting": "[5]; ranolazine, FIG. 13I", "value": "inhibits INa,L"},
      {"measurement": "reduction in INa,L", "setting": "NaV1.5 IQ/AA mutant; [10]", "value": 3, "unit": "fold"},
      {"measurement": "inhibition of INa,L", "setting": "NaV1.5 IQ/AA mutant; ranolazine, FIG. 13G", "value": "modest inhibition"},
      {"measurement": "interactions with other ionic currents", "setting": "[6]", "value": "non-selectivity interactions with other ionic currents"},
      {"measurement": "potency/efficacy for blocking late Na current", "setting": "late Na current", "value": "suboptimal potency"}
    ]},
    {"molecule": "FHF1A (human fibroblast growth factor homologous factor 1, splice variant A) (from UniProt P61328 1-243)", "values": [
      {"measurement": "time constant of the excess inactivation (single-exponential decay)", "setting": "[7]", "value": 12.3, "unit": "ms"},
      {"measurement": "time constant of the excess inactivation (single-exponential decay)", "setting": "[8]", "value": 17.8, "unit": "ms"}
    ]},
    {"molecule": "FHF1B (human) (from UniProt P61328 1-181)", "values": [
      {"measurement": "INa,L (Rpersist), multichannel recordings in HEK293 cells", "setting": "[9]", "value": 4, "unit": "fold"},
      {"measurement": "INa,L, multichannel recordings in HEK293 cells", "setting": "[9]", "value": 3, "unit": "fold"},
      {"measurement": "Rpersist against the ratio of FHF1B to FHF2S cDNA (ρ), half-maximal effect (ratio of FHF1B to FHF2S cDNA)", "setting": "[9]", "value": 0.4}
    ]},
    {"molecule": "FixR (FHF-inhibiting-X-region), FHF1A amino-terminal residues 1-39, expressed as a Venus fusion (peptide)", "values": [
      {"measurement": "fold reduction in INa,L (FIG. 5C)", "setting": "[9]", "value": "10 to 15", "unit": "fold"}
    ]},
    {"molecule": "B1", "values": [
      {"measurement": "change in INa,L", "setting": "NaV1.5 IQ/AA mutant", "value": "strongly inhibited"}
    ]}
  ]
}
